From patent publication US20210253598A1, “ARYL ANNULATED MACROCYCLIC INDOLE DERIVATIVES” (priority 2017, published 2021)
Several values for one entry are separate records, joined by “and”; a condition that tells them apart may be missing. Identical values can stand only once. Counter-ions that a name gives are not always drawn. Like-named read-outs stand apart in the source and are kept apart here.

Tests used:
[1] = molecular target: BCL-2 (Homo sapiens, UniProt P10415); assay: Protein-protein interaction assay BCL-2/Bad BH3 peptide, TR-FRET (BCL-2 assay, Assay 3); assay type: binding; details: His-BCL-2 / Bad BH3 peptide, median
[2] = molecular target: T1, MCL1 protein (Homo sapiens, UniProt Q07820); assay: PIxEL: protein-protein interaction in permeabilized cells by ELISA (Assay 5); assay type: cell-based; details: permeabilized RKO cells, biotin-BIM BH3 peptide 0.2 μM, serum free
T1 construct: this assay uses full length endogenous MCL1 protein at mitochondria outer membrane; endogenous in cells; host or cells: RKO colon cancer cell line
Experimental: PIxEL: Protein-Protein Interaction in Permeabilized Cells by ELISA
Most MCL1 protein molecules are localized at the mitochondria outer membrane and sequester pro-apoptotic proteins through binding of their BCL2 homology domain 3 (BH3 domain). MEB buffer (150 mM mannitol, 10 mM HEPES pH 7.5, 50 mM KCl, 20 μM EDTA, 20 μM EGTA, 5 mM potassium succinate, 0.1% protease-free BSA (SIGMA) with low dose digitonin (0.002%) permeabilizes plasma membrane while leaves live mitochondria, where MCL1 maintains its native localization and conformation. Unlike biophysical assays (e.g. TR-FRET) that use truncated recombinant MCL1 protein, this assay uses full length endogenous MCL1 protein at mitochondria outer membrane. It measures the interaction between MCL1 protein and biotinylated BIM BH3 peptide. Compounds can compete with BIM BH3 peptide to bind to MCL1 protein.
On day 1, RKO colon cancer cell line cells were plated at 0.8 million cells/ml, 100 μl/well in 96-well flat bottom TC plates (Corning). […] Each plate was tapped to make sure liquid covering entire bottom of wells and incubate at 37° C. overnight.
On the second day, MCL1 antibody was washed from ELISA plate. 250 μl Odyssey® Blocking Buffer (PBS) (Li-Cor) was added to each well, incubated at room temperature for at least 1 hour, then washed once with 250 μl 1×PBST. Plates with RKO cells were gently washed once with 100 μl/well PBS, once with 100 μl/well MEB buffer without digitonin, then 100 μl of MEB buffer with 0.002% digitonin was gently added to each well. Compounds were added with HP Tecan compound dispenser in 3-fold dilution series, highest dose 30 μM, 10-dose per compound in quadruplicates. Biotin-BIM peptide (synthesized by 21st Century) was added with HP Tecan compound dispenser at 0.2 μM immediately after the addition of compounds. Plates were rocked for 1 h at room temperature. Then MEB buffer was aspirated and 50 μl of CHAPS buffer (50 mM Tris-Cl, pH 7.4, 150 mM NaCl, 1% CHAPS, 1 mM EDTA, 1 mM EGTA, complete protease inhibitors (Roche), PhosSTOP (Roche)) was added to each well. Plates were rocked for 1 hour at 4° C., then 45 μl cell lysate from each well were transferred to ELISA plates coated with MCL1 antibody. Plates were incubated overnight in the cold room with rocking.
On the third day, ELISA plates were washed once with 250 μl 1×PBST. Streptavidin-poly-HRP (Thermo Fisher Scientific) was diluted to 20 ng/ml in Odyssey blocking buffer plus 0.05% Triton-100, and 100 μl was added to each well of the ELISA plate. Plates were incubated at RT for 1 hour with rocking, then washed with 100 μL 1×PBST for 3 times. Each SuperSignal ELISA Femto Maximum Sensitivity substrate was added to a 50-ml tube and mixed, then 100 μl of mixed substrate was added to each well. Plates were shaken for 1 minute then luminescence was measured by Envision plate reader […]. Signal of each well were normalized by no-compound control and no-cell control. IC50 was calculated using Graphic Pad PRISM software.

[3] = test system: SUDHL10; assay: Anti-proliferative effect in SUDHL10 cells, CellTiter-Glo (Assay 7); assay type: cell-based; details: median, read-out: Antiproli SUDHL10 [M] (median)
Experimental: Assessment of the Anti-Proliferative Effect of Compounds in Different Cell Lines
The impact of compounds on the proliferation of different cell lines was assessed using the CellTiter-Glo® Luminescent Cell Viability reagent from Promega (G7573).
In parallel, cells were plated in a reference (day 0) plate for time zero determination. Cells were incubated in a humidified incubator at 37° C. overnight.
Rim wells were excluded. The cells were incubated for 72 hours in a humidified incubator at 37° C. The day 0 plate was measured by adding 30 μL/well of CTG solution (CellTiter-Glo® Luminescent Cell Viability reagent, Promega G7573) to time zero wells in the reference plate followed by a 10 minutes incubation and luminescence reading at 0.1 ms. using the PHERAstar FS microplate reader (BMG Labtech).
After 72 hours incubation, the treated plates were measured in the same way as the day 0 plate mentioned above. The Bella DRC Master Sheet was used to calculate IC50s, with CI=day 0 values and C0=DMSO control values.

[4] = test system: MV-4-11; assay: Anti-proliferative effect in MV-4-11 cells, CellTiter-Glo (Assay 7); assay type: cell-based; details: MV-4-11, 72 hours incubation, CellTiter-Glo, several values per example, read-out: Antiproli MV-4-11
Summary of the method: (§1)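 Cells plated and incubated overnight at 37° C, then exposed to compound for 72 hours. Viability read as CellTiter-Glo luminescence, with a day 0 plate as time-zero reference. IC50 calculated with day 0 values and DMSO control values as references.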

[5] = test system: AMO-1; assay: Anti-proliferative effect in AMO-1 cells, CellTiter-Glo (Assay 7); assay type: cell-based; details: AMO-1, 72 hours incubation, CellTiter-Glo, several values per example, read-out: Antiproli AMO-1
Summary of the method: as §1

[6] = test system: A2780; assay: Anti-proliferative effect in A2780 cells, CellTiter-Glo (Assay 7); assay type: cell-based; details: A2780, 72 hours incubation, CellTiter-Glo, several values per example, read-out: Antiproli A2780
Summary of the method: as §1

[7] = molecular target: MCL-1 (Homo sapiens, UniProt Q07820, K194A/K197A/R201A); assay: Protein-compound interaction assay, surface plasmon resonance (SPR assay, Assay 8); assay type: binding; details: geometric mean; for kon: read-out: kon [1/M 1/s], SPR, immobilized MBP-MCL-1, 25° C.
Text: Protein-Compound Interaction Assay (SPR Assay)
The ability of the compounds described in this invention to bind to MCL-1 may be determined using surface plasmon resonance (SPR). This allows for the quantification of binding in terms of the equilibrium dissociation constant (KD [M]), as well as association and dissociation rate constants (kon [1/M 1/s] and koff [1/s], respectively). The measurements may be performed using Biacore® T200 or Biacore® S200 instruments (GE Healthcare).
Briefly, carboxymethylated dextran biosensor chips (Series S Sensor Chip CM5, GE Healthcare) were activated with 1-ethyl-3-(3-dimethylaminopropyl)-carbodiimide hydrochloride (EDC) and N-hydroxysuccinimide (NHS) according to the supplier's instructions. MBP-MCL-1 was diluted in 1×PBS-P+ (GE Healthcare) and injected on the activated chip surface. Subsequently, a solution of 1 M ethanolamine-HCl (GE Healthcare) was injected to block unreacted groups, resulting in approximately 400-2500 response units (RU) of immobilized protein. A reference surface was generated by treatment with NHS-EDC and ethanolamine-HCl. […] Compounds were injected for 60 s followed by a dissociation time of up to 1000 s.
The double-referenced sensorgrams were fit to a simple reversible Langmuir 1:1 reaction mechanism as implemented in the Biacore® T200 and S200 evaluation software (T200 evaluation software version 2.0 and S200 evaluation software version 1.0, GE Healthcare).

[8] = SPR, immobilized MBP-MCL-1, 25° C.
[9] = KD [M], SPR, immobilized MBP-MCL-1, 25° C.
[10] = read-out: koff [1/s], SPR, immobilized MBP-MCL-1, 25° C.

Chain of BCL-2 (P10415 1-211): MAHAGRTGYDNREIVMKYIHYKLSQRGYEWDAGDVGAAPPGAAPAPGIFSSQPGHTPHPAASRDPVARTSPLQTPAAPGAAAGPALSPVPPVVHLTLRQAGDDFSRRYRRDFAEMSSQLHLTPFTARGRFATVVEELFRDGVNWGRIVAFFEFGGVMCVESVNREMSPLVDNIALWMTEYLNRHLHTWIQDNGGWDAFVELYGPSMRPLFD
T1 sequence (Q07820 whole entry): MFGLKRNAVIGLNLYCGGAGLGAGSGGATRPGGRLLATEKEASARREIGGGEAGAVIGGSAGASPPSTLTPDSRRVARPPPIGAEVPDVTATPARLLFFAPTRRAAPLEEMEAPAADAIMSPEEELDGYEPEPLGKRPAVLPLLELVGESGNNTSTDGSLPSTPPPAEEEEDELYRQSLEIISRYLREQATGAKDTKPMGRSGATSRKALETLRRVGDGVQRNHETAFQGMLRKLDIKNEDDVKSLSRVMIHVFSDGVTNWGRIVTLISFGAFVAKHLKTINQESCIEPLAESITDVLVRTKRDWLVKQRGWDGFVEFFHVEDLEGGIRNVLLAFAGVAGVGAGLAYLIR
Chain of MCL-1 (Q07820 173-321 K194A/K197A/R201A, looked up): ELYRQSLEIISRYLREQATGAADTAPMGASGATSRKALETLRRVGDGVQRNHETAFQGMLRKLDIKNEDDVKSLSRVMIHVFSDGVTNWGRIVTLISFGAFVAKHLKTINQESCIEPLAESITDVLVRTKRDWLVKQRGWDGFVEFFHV

Structure (SMILES): CCNCC.Cc1c2c(nn1C)COCc1ncccc1Cn1c(C(=O)O)c(CCCOc3cccc4ccccc34)c3ccc(Cl)c-2c31 (single isomer, unassigned; enantiomer 1) [Example 43, 3-Chloro-4,5-dimethyl-17-[3-(naphthalen-1-yloxy)propyl]-5,7,9,14-tetrahydropyrazolo-[4′,3′:9,10]pyrido[2′,3′:3,4][1,6]oxazacycloundecino[8,7,6-hi]indole-16-carboxylic acid-N-ethylethanamine Salt (Enantiomer 1)]
- IC50 [1]: > 20000 nM
- IC50 ([2]; median, read-out: PIxEL [M] (median)): 2.97e-06 M
- IC50 ([3]; SUDHL10, 72 hours incubation): 1.5e-06 M
- IC50 [4]: 3230 nM and 2830 nM and 4420 nM
- IC50 [5]: 5160 nM and 7470 nM
- IC50 [6]: 23400 nM
- koff [7, 8]: 0.0096 s⁻¹
- kon [1/M 1/s] [7, 8]: 5.6E6 1/M 1/s
- Kd ([7]; SPR, immobilized MBP-MCL-1, 25° C., read-out: KD): 1.7e-09 M

Structure (SMILES): Cc1c2c(nn1C)COCc1ccccc1Cn1c(C(=O)O)c(CCCOc3cccc4cc(F)ccc34)c3ccc(Cl)c-2c31 (single isomer, unassigned; enantiomer 1) [Example 49, (−)-3-Chloro-17-{3-[(6-fluoronaphthalen-1-yl)oxy]propyl}-4,5-dimethyl-5,7,9,14-tetrahydroindolo[7,1-fg]pyrazolo[3,4-d][2,8]benzoxazacycloundecine-16-carboxylic acid-N-ethylethanamine Salt (Enantiomer 1)]
- IC50 [1]: ≥ 21800 nM
- IC50 ([2]; PIxEL [M] (median)): 7.88e-07 M
- IC50 ([3]; Homo sapiens, SU-DHL10, SUDHL10, 72 hours incubation): 1.2e-06 M
- IC50 ([4]; Homo sapiens, MV4-11, 72 h): 3090 nM
- IC50 [4]: 3410 nM and 3780 nM
- IC50 ([5]; Homo sapiens, AMO1, 72 h): 1920 nM
- IC50 [6]: 7620 nM and 5260 nM
- Kd [7, 9]: 3e-09 M
- koff [7, 10]: 0.0058 s⁻¹
- kon [7]: 1.9e+06 M⁻¹ s⁻¹

Structure (SMILES): Cc1c2c(nn1C)COCc1ccccc1Cn1c(C(=O)O)c(CCCOc3cccc4cc(F)ccc34)c3ccc(F)c-2c31 (single isomer, unassigned; enantiomer 1) [Example 65, (−)-3-fluoro-17-{3-[(6-fluoronaphthalen-1-yl)oxy]propyl}-4,5-dimethyl-5,7,9,14-tetrahydroindolo[7,1-fg]pyrazolo[3,4-d][2,8]benzoxazacycloundecine-16-carboxylic acid-N-ethylethanamine Salt (Enantiomer 1)]
- IC50 [1]: 16900 nM
- IC50 ([2]; PIxEL [M] (median)): 1.04e-06 M
- IC50 [5]: 1750 nM
- IC50 ([5]; Homo sapiens, AMO1, 72 h): 2000 nM
- IC50 ([6]; Homo sapiens, A2780, 72 h): 10100 nM
- Kd [7, 9]: 1.4e-09 M
- koff [7, 10]: 0.011 s⁻¹
- kon [7]: 8e+06 M⁻¹ s⁻¹

Structure (SMILES): Cc1c2c(nn1C)COCc1ccccc1Cn1c(C(=O)O)c(CCCOc3cccc4cc(F)ccc34)c3ccc(Cl)c-2c31 (single isomer, unassigned; enantiomer 2) [Example 50, (+)-3-Chloro-17-{3-[(6-fluoronaphthalen-1-yl)oxy]propyl}-4,5-dimethyl-5,7,9,14-tetrahydroindolo[7,1-fg]pyrazolo[3,4-d][2,8]benzoxazacycloundecine-16-carboxylic acid-N-ethylethanamine Salt (Enantiomer 2)]
- IC50 ([2]; PIxEL [M] (median)): 1.69e-06 M
- IC50 ([3]; SUDHL10, 72 hours incubation): 1.2e-06 M
- IC50 [4]: 2210 nM and 3070 nM and 2530 nM
- IC50 [5]: 2820 nM
- IC50 [6]: 11700 nM and 8650 nM
- Kd [7, 9]: 3.8e-09 M
- koff [7, 8]: 0.0061 s⁻¹
- kon [1/M 1/s] [7, 8]: 1.6E6 1/M 1/s
